Measurements from the NIST ThermoML archive (doi:10.1016/j.jct.2015.03.019).
Values joined by “and” are separate entries in the source; they are usually repeats but may differ in a detail not shown here. Equal values may be shown once.

Test: molar heat capacity at constant pressure
Conditions: 101.33 kPa, Small (less than 1 g) adiabatic calorimetry

CC(C)(C)c1ccc(Oc2ccccc2)cc1 [4-tert-butylphenyl phenyl ether]
molar heat capacity at constant pressure
Conditions | Crystal | Liquid
120 K | 144.42 J/K/mol | –
120.73 K | 145 J/K/mol | –
121.96 K | 146.09 J/K/mol | –
123.18 K | 147.08 J/K/mol | –
124.42 K | 148.25 J/K/mol | –
125.65 K | 149.33 J/K/mol | –
126.9 K | 150.41 J/K/mol | –
128.13 K | 151.57 J/K/mol | –
129.37 K | 152.57 J/K/mol | –
130 K | 153.32 J/K/mol | –
130.6 K | 153.82 J/K/mol | –
131.84 K | 154.9 J/K/mol | –
133.08 K | 155.9 J/K/mol | –
134.32 K | 157.23 J/K/mol | –
135.56 K | 158.22 J/K/mol | –
136.81 K | 159.31 J/K/mol | –
138.05 K | 160.3 J/K/mol | –
139.3 K | 161.47 J/K/mol | –
140 K | 161.97 J/K/mol | –
140.55 K | 162.46 J/K/mol | –
141.8 K | 163.38 J/K/mol | –
143.04 K | 164.54 J/K/mol | –
144.3 K | 165.79 J/K/mol | –
145.55 K | 166.71 J/K/mol | –
146.83 K | 167.95 J/K/mol | –
148.09 K | 169.12 J/K/mol | –
149.35 K | 169.95 J/K/mol | –
150 K | 170.61 J/K/mol | –
150.61 K | 171.11 J/K/mol | –
151.87 K | 172.28 J/K/mol | –
153.13 K | 173.44 J/K/mol | –
154.39 K | 174.44 J/K/mol | –
155.66 K | 175.27 J/K/mol | –
156.93 K | 176.43 J/K/mol | –
158.2 K | 177.6 J/K/mol | –
159.47 K | 178.43 J/K/mol | –
160 K | 179.01 J/K/mol | –
160.74 K | 179.34 J/K/mol | –
162.02 K | 180.67 J/K/mol | –
163.29 K | 181.92 J/K/mol | –
164.57 K | 182.92 J/K/mol | –
165.84 K | 184.08 J/K/mol | –
167.17 K | 185.33 J/K/mol | –
168.45 K | 186.16 J/K/mol | –
169.73 K | 187.16 J/K/mol | –
170 K | 187.41 J/K/mol | –
171.02 K | 188.24 J/K/mol | –
172.31 K | 189.4 J/K/mol | –
173.6 K | 190.48 J/K/mol | –
174.89 K | 191.57 J/K/mol | –
176.18 K | 192.9 J/K/mol | –
177.47 K | 193.64 J/K/mol | –
178.77 K | 194.81 J/K/mol | –
180 K | 195.72 J/K/mol | –
180.07 K | 195.97 J/K/mol | –
181.37 K | 197.05 J/K/mol | –
183.98 K | 199.21 J/K/mol | –
185.29 K | 200.46 J/K/mol | –
186.59 K | 201.63 J/K/mol | –
187.96 K | 202.71 J/K/mol | –
189.28 K | 203.54 J/K/mol | –
190 K | 204.12 J/K/mol | –
190.59 K | 204.62 J/K/mol | –
191.9 K | 205.95 J/K/mol | –
193.22 K | 207.03 J/K/mol | –
194.54 K | 208.28 J/K/mol | –
195.86 K | 209.36 J/K/mol | –
197.19 K | 210.52 J/K/mol | –
198.51 K | 211.69 J/K/mol | –
199.84 K | 212.52 J/K/mol | –
200 K | 212.52 J/K/mol | –
202.54 K | 214.35 J/K/mol | –
203.91 K | 215.51 J/K/mol | –
205.26 K | 216.84 J/K/mol | –
206.62 K | 217.92 J/K/mol | –
209.43 K | 220.42 J/K/mol | –
210 K | 221.08 J/K/mol | –
212.14 K | 222.5 J/K/mol | –
213.5 K | 223.66 J/K/mol | –
214.85 K | 224.82 J/K/mol | –
216.21 K | 225.99 J/K/mol | –
218.93 K | 228.56 J/K/mol | –
220 K | 229.81 J/K/mol | –
220.29 K | 230.06 J/K/mol | –
221.64 K | 231.06 J/K/mol | –
222.99 K | 232.06 J/K/mol | –
224.34 K | 233.39 J/K/mol | –
225.69 K | 234.72 J/K/mol | –
227.04 K | 235.72 J/K/mol | –
228.4 K | 237.05 J/K/mol | –
229.74 K | 238.29 J/K/mol | –
230 K | 238.71 J/K/mol | –
231.18 K | 240.12 J/K/mol | –
236.59 K | 245.11 J/K/mol | –
237.93 K | 246.03 J/K/mol | –
239.28 K | 247.27 J/K/mol | –
240 K | 247.77 J/K/mol | –
240.62 K | 248.44 J/K/mol | –
241.97 K | 249.68 J/K/mol | –
243.31 K | 250.76 J/K/mol | –
244.65 K | 252.18 J/K/mol | –
248.66 K | 256.25 J/K/mol | –
250 K | 257.67 J/K/mol and 257.5 J/K/mol | –
251.33 K | 258.91 J/K/mol | –
252.75 K | 260.49 J/K/mol | –
254.09 K | 261.41 J/K/mol | –
255.42 K | 262.82 J/K/mol | –
256.75 K | 264.07 J/K/mol | –
260 K | 267.48 J/K/mol | –
260.74 K | 268.39 J/K/mol | –
262.06 K | 269.56 J/K/mol | –
263.38 K | 270.8 J/K/mol | –
264.71 K | 272.05 J/K/mol | –
266.03 K | 273.38 J/K/mol | –
267.35 K | 274.54 J/K/mol | –
268.67 K | 275.96 J/K/mol | –
269.98 K | 276.87 J/K/mol | –
270 K | 277.2 J/K/mol | –
271.3 K | 278.45 J/K/mol | –
272.62 K | 279.7 J/K/mol | –
276.62 K | 283.69 J/K/mol | –
277.92 K | 285.02 J/K/mol | –
279.22 K | 286.27 J/K/mol | –
280 K | 287.1 J/K/mol | –
280.53 K | 287.51 J/K/mol | –
281.83 K | 289.01 J/K/mol | –
283.13 K | 290.09 J/K/mol | –
284.43 K | 291.09 J/K/mol | –
288.3 K | 295.16 J/K/mol | –
289.59 K | 296.49 J/K/mol | –
290 K | 296.41 J/K/mol | –
290.87 K | 297.33 J/K/mol | –
292.15 K | 298.24 J/K/mol | –
293.43 K | 298.91 J/K/mol | –
294.71 K | 299.82 J/K/mol | –
298.15 K | 302.98 J/K/mol | –
299.77 K | 304.06 J/K/mol | –
300 K | 304.48 J/K/mol | –
301.26 K | 305.47 J/K/mol | –
302.92 K | 307.05 J/K/mol | –
304.58 K | 308.88 J/K/mol | –
306.25 K | 310.3 J/K/mol | –
309.6 K | 312.87 J/K/mol | –
310 K | 313.21 J/K/mol | –
311.29 K | 315.62 J/K/mol | –
314.7 K | 320.94 J/K/mol | –
316.41 K | 322.19 J/K/mol | –
318.13 K | 325.68 J/K/mol | –
319.86 K | 330.17 J/K/mol | –
320 K | 321.69 J/K/mol | –
321.61 K | 331 J/K/mol | –
327.84 K | 328.26 J/K/mol | 384.38 J/K/mol
330 K | – | 386.29 J/K/mol
334.3 K | – | 391.36 J/K/mol
340 K | – | 394.94 J/K/mol
340.65 K | – | 394.52 J/K/mol
347.01 K | – | 398.93 J/K/mol
350 K | – | 403.25 J/K/mol
351.17 K | – | 405 J/K/mol
353.12 K | – | 407.24 J/K/mol
355.08 K | – | 408.24 J/K/mol
357.06 K | – | 409.82 J/K/mol
359.07 K | – | 410.65 J/K/mol
360 K | – | 411.57 J/K/mol
361.08 K | – | 411.57 J/K/mol
363.12 K | – | 412.65 J/K/mol
365.18 K | – | 413.4 J/K/mol
367.25 K | – | 414.06 J/K/mol
369.35 K | – | 414.89 J/K/mol
370 K | – | 414.89 J/K/mol
371.48 K | – | 415.81 J/K/mol
